47 molecules from patent publication US8338441B2, “Inhibitors of human immunodeficiency virus replication” (priority 2009, dated 2012) can be followed below.

pEC50: −log10 of the molar value.

In the test the test system is HIV-1 NL4.3 strain. The experiment in a line: C8166 HIV-1 Luciferase Assay (EC50). Type of test: cell-based. To be noted: Human immunodeficiency virus 1, C8166, 72 h, read-out: Antiviral potency EC50. An excerpt: C8166 HIV-1 Luciferase Assay (EC50)
C8166 cells are derived from a human T-lymphotrophic virus type 1 immortalized but nonexpressing line of cord blood lymphocytes (obtained from J. Sullivan and originally produced in the laboratory of R. Gallo, Virology 1983; 129: 51-64) and are highly permissive to HIV-1 infection. The pGL3 Basic LTR/TAR plasmid is made by introducing the HIV-1 HxB2 LTR sequence from nucleotide −138 to +80 (Sca1-HindIII) upstream of the luciferase gene in the pGL3 Basic Vector (a promoterless luciferase expression vector from Promega catalogue # E1751) with the gene for blasticidine resistance cloned in. The reporter cells are made by electroporating C8166 cells with pGL3 Basic LTR/TAR and selecting positive clones with blasticidine. Clone C8166-LTRIuc #A8-F5-G7 is selected by 3 consecutive rounds of limiting dilution under blasticidine selection. Cultures are maintained in complete media (consisting of: Roswell Park Memorial Institute medium (RPMI) 1640+10% FBS+10^−5 M β-mercaptoethanol+10 μg/ml gentamycin) with 5 μg/ml blasticidine, however, blasticidine selection is removed from the cells before performing the viral replication assay.
Luciferase Assay Protocol
Serial dilutions of HIV-1 inhibitor compounds are prepared in complete media from 10 mM DMSO stock solutions. Eleven serial dilutions of 2.5× are made at 8× desired final concentration in a 1 mL deep well titer plate (96 wells). The 12th well contains complete media with no inhibitor and serves as the positive control. All samples contain the same concentration of DMSO (≦0.1% DMSO). A 25 μL aliquot of inhibitor is added, to triplicate wells, of a 96 well tissue culture treated clear view black microtiter plate (Corning Costar catalogue # 3904). The total volume per well is 200 μL of media containing cells and inhibitor. The last row is reserved for uninfected C8166 LTRluc cells to serve as the background blank control and the first row is media alone.
C8166 LTRluc cells are counted and placed in a minimal volume of complete RPMI 1640 in a tissue culture flask (ex. 30×10^6 cells in 10 mL media/25 cm^2 flask). Cells are infected with HIV-1 or virus with variant integrase generated as described below at a […] (moi) of 0.005. Cells are incubated for 1.5 hours at 37° C. on a rotating rack in a 5% CO2 incubator and re-suspended in complete RPMI to give a final concentration of 25,000-cells/175 μL. 175 μL of cell mix is added to wells of a 96 well microtiter plate containing 25 μL 8× inhibitors. 25,000 uninfected C8166-LTRluc cells/well in 200 μL complete RPMI are added to the last row for background control. Cells are incubated at 37° C. in 5% CO2 incubator for 3 days.
50 μL Steady Glo (luciferase substrate T1/2=5 hours Promega catalogue # E2520) is added to each well of the 96 well plate. The relative light units (RLU) of luciferase is determined using the LUMIstar Galaxy luminometer (BMG LabTechnologies). Plates are read from the bottom for 2 seconds per well with a gain of 240.
The level of inhibition (% inhibition) of each well containing inhibitor is calculated as follows: […]
The calculated % inhibition values are used to determine EC50, slope factor (n) and maximum inhibition (Imax) by the non-linear regression routine NLIN procedure of SAS using the following equation: […]
For `Cc1nc(-c2cccc(Br)c2)c(C)c(-c2ccc3c(c2)CCCO3)c1[C@H](OC(C)(C)C)C(=O)O` [compound 1005], the pEC50 is 7.72.
As for `Cc1nc(-c2cccc(-c3cccnc3)c2)c(C)c(-c2ccc3c(c2)CCCO3)c1[C@H](OC(C)(C)C)C(=O)O` [compound 1009], the pEC50 was 7.70.
Take `CCCn1cc(-c2cccc(-c3nc(C)c([C@H](OC(C)(C)C)C(=O)O)c(-c4ccc5c(c4)CCCO5)c3C)c2)cn1` [compound 1011]: the pEC50 was 7.23.
With `Cc1nc(-c2cccc(-c3cncnc3)c2)c(C)c(-c2ccc3c(c2)CCCO3)c1[C@H](OC(C)(C)C)C(=O)O` [compound 1017], the pEC50 is 7.68.
In the case of `Cc1n[nH]c(C)c1-c1cccc(-c2nc(C)c([C@H](OC(C)(C)C)C(=O)O)c(-c3ccc4c(c3)CCCO4)c2C)c1` [compound 1018], the pEC50 was 6.74.
The value for `Cc1nc(-c2cccc(-c3ccnnc3)c2)c(C)c(-c2ccc3c(c2)CCCO3)c1[C@H](OC(C)(C)C)C(=O)O` [compound 1020] was 7.31.
Turning to `Cc1nc(-c2ccc(-c3cncnc3)cc2)c(C)c(-c2ccc3c(c2C)CCCO3)c1[C@H](OC(C)(C)C)C(=O)O` [compound 1102], the pEC50 was 7.77.
Consider `Cc1ccc(-c2nc(C)c([C@H](OC(C)(C)C)C(=O)O)c(-c3ccc(Cl)cc3)c2C)cc1C` [compound 1111], for which the pEC50 is 7.82.
Take `Cc1ccc(-c2nc(C)c([C@H](OC(C)(C)C)C(=O)O)c(-c3ccc4c(c3C)NCCO4)c2C)cc1C` [compound 1113]: the negative logarithm of the EC50 (pEC50) was 8.11.
As to `Cc1ccc(-c2nc(C)c([C@H](OC(C)(C)C)C(=O)O)c(-c3ccc4c5c(ccnc35)CCO4)c2C)cc1C` [compound 1116], the pEC50 is 7.89.
On to `Cc1nc(-c2cccc(-c3ccnn3C)c2)c(C)c(-c2ccc(Cl)cc2)c1[C@H](OC(C)(C)C)C(=O)O` [compound 1124], for which the pEC50 is 7.09.
The value for `Cc1nc(C(=O)N[C@H]2CC[C@H](C)CC2)c(C)c(-c2ccc3c(c2)CCCO3)c1[C@H](OC(C)(C)C)C(=O)O` [compound 1127] was 8.35.
In the case of `Cc1nc(-c2ccc(OC(F)(F)F)cc2)c(C)c(-c2ccc(Cl)cc2)c1[C@H](OC(C)(C)C)C(=O)O` [compound 1132], the negative-log EC50 (pEC50) was 8.03.
Regarding `Cc1nc(-c2ccc3scnc3c2)c(C)c(-c2ccc(Cl)cc2)c1[C@H](OC(C)(C)C)C(=O)O` [compound 1141], the pEC50 is 7.59.
For `Cc1nc(C(=O)N[C@H]2CC[C@H](C)CC2)c(C)c(-c2ccc(Cl)cc2)c1[C@H](OC(C)(C)C)C(=O)O` [compound 1142], the negative-log EC50 (pEC50) is 8.10.
On to `Cc1nc(C(=O)NC(C)(C)C)c(C)c(-c2ccc(Cl)cc2)c1[C@H](OC(C)(C)C)C(=O)O` [compound 1143], for which the negative-log EC50 (pEC50) is 7.68.
The value for `Cc1nc(C(=O)NC2Cc3ccccc3C2)c(C)c(-c2ccc(Cl)cc2)c1[C@H](OC(C)(C)C)C(=O)O` [compound 1145] was 7.46; that for `Cc1nc(C(=O)NCCc2ccccc2)c(C)c(-c2ccc(Cl)cc2)c1[C@H](OC(C)(C)C)C(=O)O` [compound 1146] was 7.77; that for `Cc1nc(C(=O)NC2CCCCCC2)c(C)c(-c2ccc(Cl)cc2)c1[C@H](OC(C)(C)C)C(=O)O` [compound 1147] was 8.16.
On to `Cc1nc(C(=O)N[C@@H](C)C2CCCCC2)c(C)c(-c2ccc(Cl)cc2)c1[C@H](OC(C)(C)C)C(=O)O` [compound 1152], for which the pEC50 is 7.82.
Take `Cc1nc(C(=O)NC(C)(C)c2ccccc2)c(C)c(-c2ccc(Cl)cc2)c1[C@H](OC(C)(C)C)C(=O)O` [compound 1154]: the pEC50 is 7.57.
On to `CC[C@@H](C)NC(=O)c1nc(C)c([C@H](OC(C)(C)C)C(=O)O)c(-c2ccc(Cl)cc2)c1C` [compound 1160], for which the pEC50 was 7.80.
As for `Cc1nc(C(=O)NC2CCC(C(C)(C)C)CC2)c(C)c(-c2ccc(Cl)cc2)c1[C@H](OC(C)(C)C)C(=O)O` (some centres unmarked) [compound 1161], the pEC50 is 7.57.
On to `Cc1ccc(NC(=O)c2nc(C)c([C@H](OC(C)(C)C)C(=O)O)c(-c3ccc(Cl)cc3)c2C)cc1` [compound 1167], for which the pEC50 was 8.03.
For `Cc1nc(C(=O)NC2CCCCCC2)c(C)c(-c2ccc3c(c2C)NCCO3)c1[C@H](OC(C)(C)C)C(=O)O` [compound 1192], the pEC50 is 8.08.
For `Cc1nc(NC(=O)C(C)(C)C)c(C)c(-c2ccc(Cl)cc2)c1[C@H](OC(C)(C)C)C(=O)O` [compound 1202], the pEC50 was 7.51.
The value for `Cc1nc(C(=O)NCC2CCCC2)c(C)c(-c2ccc(Cl)cc2)c1[C@H](OC(C)(C)C)C(=O)O` [compound 1208] was 8.05.
With `Cc1nc(NC(=O)C(C)(C)C)c(C)c(-c2ccc3c(c2Cl)NCCO3)c1[C@H](OC(C)(C)C)C(=O)O` [compound 1242], the pEC50 was 6.66.
Turning to `Cc1nc(C(=O)NCC2CCCC2)c(C)c(-c2ccc3c(c2Cl)NCCO3)c1[C@H](OC(C)(C)C)C(=O)O` [compound 1256], the pEC50 is 8.09.
On to `Cc1nc(C(=O)Nc2ccc3ncccc3c2)c(C)c(-c2ccc(Cl)cc2)c1[C@H](OC(C)(C)C)C(=O)O` [compound 1275], for which the pEC50 is 8.35.
As to `Cc1nc(C(=O)Nc2nc3c(s2)CCC3)c(C)c(-c2ccc(Cl)cc2)c1[C@H](OC(C)(C)C)C(=O)O` [compound 1276], the pEC50 was 7.17.
The value for `Cc1nc(C(=O)Nc2ccc(C(F)(F)F)nc2)c(C)c(-c2ccc(Cl)cc2)c1[C@H](OC(C)(C)C)C(=O)O` [compound 1280] was 7.66; that for `Cc1nc(C(=O)Nc2ccc(C(N)=O)nc2)c(C)c(-c2ccc(Cl)cc2)c1[C@H](OC(C)(C)C)C(=O)O` [compound 1283] was 6.85.
Consider `Cc1nc(C(=O)Nc2ccc(F)cn2)c(C)c(-c2ccc3c(c2)NCCO3)c1[C@H](OC(C)(C)C)C(=O)O` [compound 1290], for which the pEC50 was 7.96.
For `Cc1nc(C(=O)NCC2CCCC2)c(C)c(-c2ccc3c(c2)NCCO3)c1[C@H](OC(C)(C)C)C(=O)O` [compound 1293], the negative-log EC50 (pEC50) is 7.62.
As for `Cc1nc(C(=O)NCC2CCC2)c(C)c(-c2ccc(Cl)cc2)c1[C@H](OC(C)(C)C)C(=O)O` [compound 1307], the figure is 7.77.
Turning to `Cc1nc2ccc(NC(=O)c3nc(C)c([C@H](OC(C)(C)C)C(=O)O)c(-c4ccc(Cl)cc4)c3C)cc2s1` [compound 1311], the negative-log EC50 (pEC50) was 7.59.
For the molecule `Cc1nc(C(=O)Nc2nnc(C3CC3)s2)c(C)c(-c2ccc(Cl)cc2)c1[C@H](OC(C)(C)C)C(=O)O` [compound 1316], the pEC50 is 7.33.
`Cc1nc(-c2nc3ccc(Cl)cc3n2C)c(C)c(-c2ccc(Cl)cc2)c1[C@H](OC(C)(C)C)C(=O)O` [compound 1437]: the pEC50 was 9.12.
In the case of `Cc1nc(-c2cn3cc(Cl)ccc3n2)c(C)c(-c2ccc(Cl)cc2)c1[C@H](OC(C)(C)C)C(=O)O` [compound 1438], the pEC50 is 9.03.
With `COc1ccc2nc(-c3nc(C)c([C@H](OC(C)(C)C)C(=O)O)c(-c4ccc(Cl)cc4)c3C)n(C)c2c1` [compound 1439], the pEC50 is 8.40.
With `CCn1c(-c2nc(C)c([C@H](OC(C)(C)C)C(=O)O)c(-c3ccc(Cl)cc3)c2C)nc2ccccc21` [compound 1440], the pEC50 is 8.62.
Regarding `COc1cc2nc(-c3nc(C)c([C@H](OC(C)(C)C)C(=O)O)c(-c4ccc(Cl)cc4)c3C)n(C)c2cc1Cl` [compound 1441], the pEC50 was 8.31.
Take `Cc1nc(C(=O)NCc2ccnc3ccccc23)c(C)c(-c2ccc(Cl)cc2)c1[C@H](OC(C)(C)C)C(=O)O` [compound 1442]: the pEC50 was 7.80.
As for `[2H]C1([2H])C([2H])([2H])C([2H])([2H])C([2H])(NC(=O)c2nc(C)c([C@H](OC(C)(C)C)C(=O)O)c(-c3ccc(Cl)cc3)c2C)C([2H])([2H])C1([2H])[2H]` [compound 1443], the pEC50 is 8.15.
The value for `Cc1nc(C(=O)NC2CCC3(CC2)CC3)c(C)c(-c2ccc(Cl)cc2)c1[C@H](OC(C)(C)C)C(=O)O` [compound 1444] was 8.04; that for `Cc1nc(-c2nc3cc(Cl)ccc3[nH]2)c(C)c(-c2ccc(Cl)cc2F)c1[C@H](OC(C)(C)C)C(=O)O` [compound 1445] was 8.72.
